SMILES strings stand for the structures.

A short description of series [1]: Nephrotoxicity in human patients assessed as proportion of patients with higher serum creatinine level. The class given is toxicity. The note with it: in vivo.
A short description of series [2]: Ototoxicity against C57BL/6 mouse cochlea hair cells assessed as reduction in cell viability at 0.1 mM incubated for 23 hrs by FITC-phalloidin staining-based assay. The format is toxicity. The note with it: read-out: INH.

With `CN[C@@H]1[C@@H](O)[C@@H](O[C@@H]2[C@@H](O)[C@H](O[C@H]3OC(CNCCO)=CC[C@H]3N)[C@@H](N)C[C@H]2NC(=O)[C@@H](O)CCN)OC[C@]1(C)O` [PLAZOMICIN], the Activity in series [1] is 7%.

Consider `NC[C@@H]1O[C@H](O[C@H]2[C@@H](O)[C@H](O[C@@H]3[C@@H](O)[C@H](N)C[C@H](N)[C@H]3O[C@H]3O[C@H](CO)[C@@H](O)[C@H](O)[C@H]3N)O[C@@H]2CO)[C@H](N)[C@@H](O)[C@@H]1O` [PAROMOMYCIN], for which the cytotoxicity at 23 h, 100 µM in series [2] came to 4%. On to `NC[C@@H]1O[C@H](O[C@H]2[C@@H](O)[C@H](O[C@@H]3[C@@H](O)[C@H](N)C[C@H](N)[C@H]3O[C@H]3O[C@H](CN)[C@@H](O)[C@H](O)[C@H]3N)O[C@@H]2CO)[C@H](N)[C@@H](O)[C@@H]1O` [FRAMYCETIN], for which, in series [2], the cytotoxicity at 23 h, 100 µM amounted to 20%.

These data come from ChEMBL document CHEMBL4622860, “The relationship between the structure and toxicity of aminoglycoside antibiotics” (Bioorg Med Chem Lett, 2020).
